Assay results: PMC7436000, “The Spectrum of Design Solutions for Improving the Activity-Selectivity Product of Peptide Antibiotics against Multidrug-Resistant Bacteria and Prostate Cancer PC-3 Cells” (Molecules, 2020)
Values after ≈ are worked out from the molar mass of the structure shown. Where two headings read alike, the source gives them in different places. Peptide text beside a SMILES is read from it.

Legend:
[1] = system: E. coli clin. isolate; format: cell-based, Escherichia coli; conditions: clin. isolate
Text: (§1) The American Type Culture Collection (ATCC, Rockville, MD, USA) strains and Escherichia coli MG1655 were used as standard bacterial strains. Gram-negative ATCC strains consisted of Escherichia coli (ATCC 25922), Pseudomonas aeruginosa (ATCC 27853), Acinetobacter baumannii (ATCC 19606), and Klebsiella pneumoniae (ATCC 13883). The only Gram-positive standard strain chosen for testing was Staphylococcus aureus (ATCC 29213). Clinical isolates with confirmed multidrug-resistance phenotype were obtained from different wards of the University Hospital Center, Split, Croatia. We described their origin, antibiograms, and resistance phenotype previously. In the same paper, we described the procedure for antimicrobial susceptibility testing on planktonic cells, using the microdilution method in 96-well microtiter plates.
(§2) Briefly, cells were grown on agar plates and a single colony was sampled to generate a liquid culture (LC) grown overnight at 37 °C. The culture was sampled, resuspended in fresh medium, and allowed to grow at 37 °C, until reaching the mid-exponential phase. Lysogeny broth (LB) was used in the case of the E. coli MG1655 cells. Mueller Hinton (MH) medium was used for all other bacterial strains. Serial 2-fold dilutions of the peptide (64 μM to 0.0625 μM) were prepared from peptide stock solution in PBS, and added to a final load of 5 × 10^5 CFU/mL in 100 μL total volume of medium per well in a 96-well plate (Brand 781660). Bacterial cultures were incubated with peptides for 18 h to 24 h at 37 °C. The minimum inhibitory concentration (MIC) was defined as the lowest concentration of the peptide, at which no visible bacterial growth was observed. The MIC for each of the tested peptides was determined in at least three individual assays under the same laboratory conditions. […] At the end of the incubation period for MIC or MBC, the determination of the OD600 was analyzed.

[2] = system: P. aerug. clin. isolate; format: cell-based, Pseudomonas aeruginosa
Text: as §1, §2

[3] = system: K. pneum. clin. isolate; format: cell-based, Klebsiella pneumoniae
Text: as §1, §2

[4] = system: Acinetobacter baumannii (ATCC 19606); format: cell-based; conditions: ATCC 19606
Text: as §1, §2

[5] = system: Escherichia coli (ATCC 25922); format: cell-based; conditions: ATCC 25922
Text: as §1, §2

[6] = system: Escherichia coli MG1655; format: cell-based
Text: as §1, §2

[7] = system: Klebsiella pneumoniae (ATCC 13883); format: cell-based; conditions: ATCC 13883
Text: as §1, §2

[8] = system: Pseudomonas aeruginosa (ATCC 27853); format: cell-based; conditions: ATCC 27853
Text: as §1, §2

[9] = system: Staphylococcus aureus (ATCC 29213); format: cell-based
Text: as §1, §2

[10] = system: A. baum. clin. isolate; format: cell-based, Acinetobacter baumannii
Text: as §1, §2

[11] = system: S. aureus clin. isolate; format: cell-based, Staphylococcus aureus; conditions: clin. isolate
Text: as §1, §2

[12] = system: human erythrocytes; test: Hemolysis of human erythrocytes; format: cell-based; conditions: for HC10: concentration causing 10% hemolysis, 0.2% Triton = 100%; for HC10 / HC20 / HC50: 0.5% RBC in PBS, 1 h, 37 °C, absorbance 450 nm, triplicate; for HC20: concentration causing 20% hemolysis; for HC50: concentration causing 50% hemolysis
Method: Fresh blood was obtained from a healthy donor. Blood was stored in a tube containing EDTA at 4 °C and used within 24 h. Before use, 1 mL of blood was centrifuged (400× g, 10 min), and the supernatant was discarded. Moreover, 500 μL cold PBS with EDTA (1 mM) was added, mixed and centrifuged. The supernatant was discarded. Furthermore, 500 μL of cold PBS with EDTA (1 mM) was added, from which a dilution of 1% blood was made. Peptides were prepared in PBS at a 2 × concentration in 100 µL. […] The suspension was incubated at 37 °C for 1 h and centrifuged at 10,000× g for 5 min. […] After centrifugation, the supernatant was added to a 96-well microtiter plate (150–180 μL), and the absorbance was measured at 450 nm, using EnSight Multimode Plate Reader (PerkinElmer, Inc.). Each measurement was done in triplicate. […] We opted to also include the extrapolated HC50 in our results, to permit comparisons with older toxicity results. However, the HC20 measurements were used for ranking the peptides according to their selectivity and overall performance (Figure 1 and Figure 2 and Table 2).

[13] = system: human primary dermal fibroblasts; format: cell-based
Method: (§3) Prostate cancer cells were donated by the University of Split, School of Medicine. Cells were cultured in RMPI-1640 medium, supplemented with 10% FBS, 1% Penicillin-Streptomycin, and 1% L-Glutamine. Human dermal fibroblasts were purchased from Biopredic (France) and cultured in DMEM medium, supplemented with 10% FBS and 1% Penicillin-Streptomycin. All cell lines were maintained in a humidified incubator with 5% CO2 at 37 °C. Cells were detached using the trypsin-EDTA solution and sub-cultured (7000 cells/well) in a 96-well plate overnight. Peptide stock solutions were prepared in PBS, and cancer cells were treated with 2-fold serial dilutions for 24 h at 37 °C, with 5% CO2. The toxicity of 6 selected peptides was assessed by a standard MTT assay. Treated cells were incubated with MTT working solution (0.5 mg/mL Thiazolyl Blue Tetrazolium Bromide) for 4 h at 37 °C with 5% CO2. Precipitated formazan was dissolved in 200 µL DMSO and absorbance was measured at 595 nm with EnSight Multimode Plate Reader (PerkinElmer, Inc.)

[14] = system: PC-3 prostate cancer cell line; format: cell-based, human
Method: as §3

| SMILES | MIC (E. coli clin. isolate) [1] [µM] | MIC (P. aerug. clin. isolate) [2] [µM] | MIC (K. pneum. clin. isolate) [3] [µM] | MIC (A. baum. ATCC 19606) [4] [µM] | MIC (E. coli ATCC 25922) [5] [µM] | MIC (E. coli MG1655) ([6]; MG1655) [µM] | MIC (K. pneum. ATCC 13883) [7] [µM] | MIC (P. aerug. ATCC 27853) [8] [µM] | MIC (S. aureus ATCC 29213) [9] [µM] | MIC (A. baum. clin. isolate) [10] [µM] | MIC (S. aureus clin. isolate) [11] [µM] | HC10 [12] [µM] | HC20 [12] [µM] | IC50 ([13]; 24 h) [µM] | (TI/ IC50C) vs. MP1 ([14]; 24 h) | IC50 ([14]; 24 h) [µM] | TI (HC20/IC20C) ([14]; 24 h) | TI (IC50F/IC50C) ([14]; 24 h) | TI/ IC50C ([14]; 24 h) | HC50 [12] [µM] | also measured |
| --- | --- | --- | --- | --- | --- | --- | --- | --- | --- | --- | --- | --- | --- | --- | --- | --- | --- | --- | --- | --- | --- |
| CC[C@H](C)[C@H](NC(=O)CN)C(=O)N[C@@H](CCCCN)C(=O)N[C@@H](CCCCN)C(=O)N[C@@H](C)C(=O)N[C@H](C(=O)NCC(=O)N[C@@H](CCCCN)C(=O)N[C@@H](C)C(=O)N[C@@H](CC(C)C)C(=O)N[C@@H](CCCCN)C(=O)NCC(=O)N[C@@H](CC(C)C)C(=O)N[C@@H](CCCCN)C(=O)NCC(=O)N[C@@H](CC(C)C)C(=O)N[C@@H](CC(C)C)C(=O)N[C@@H](CCCCN)C(=O)N[C@@H](C)C(=O)N[C@@H](CC(C)C)C(=O)NCC(=O)N[C@@H](CCC(=O)O)C(=O)N[C@@H](CO)C(N)=O)C(C)C [A1A] (H-GIKKAVGKALKGLKGLLKALGES-NH2) | 32 (≈ 72.9 µg/mL) | >64 | 8 (≈ 18.2 µg/mL) | 2 (≈ 4.56 µg/mL) | 1 (≈ 2.28 µg/mL) | 2 (≈ 4.56 µg/mL) | 4 (≈ 9.12 µg/mL) | 64 (≈ 146 µg/mL) | 1 (≈ 2.28 µg/mL) | 4 to 8 | 4 (≈ 9.12 µg/mL) | 25 | 80 | 30 | 5 | 12 | 27 | 2.5 | 0.21 | – | PEa(20) = SI/MIC(aureus) ([9]; ATCC 29213, 18 h): 80 µM⁻¹; HC50 * (extrapolated) ([12]; extrapolated, all concentrations tested lysed less than 50% of cells): 125 * µM |
| CC[C@H](C)[C@H](NC(=O)CN)C(=O)N[C@@H](CCCCN)C(=O)N[C@@H](CCCCN)C(=O)N[C@@H](Cc1c[nH]c2ccccc12)C(=O)N[C@H](C(=O)N[C@@H](CCCCN)C(=O)NCC(=O)N[C@H](C(=O)N[C@@H](C)C(=O)N[C@@H](CCCCN)C(=O)NCC(=O)N[C@H](C(=O)N[C@@H](C)C(=O)N[C@@H](CCCCN)C(=O)N[C@@H](CC(=O)O)C(=O)N[C@@H](CC(C)C)C(=O)N[C@@H](C)C(=O)N[C@@H](CCCCN)C(=O)N[C@@H](CCCCN)C(=O)N[C@H](C(=O)N[C@@H](CC(C)C)C(N)=O)[C@@H](C)CC)C(C)C)C(C)C)C(C)C [FLEX] (H-GIKKWVKGVAKGVAKDLAKKIL-NH2) | 0.5 (≈ 1.17 µg/mL) | 2 to 4 | 2 to 4 | 0.5 to 1 | 0.25 (≈ 0.587 µg/mL) | 16 (≈ 37.6 µg/mL) | 0.5 to 1 | 2 (≈ 4.7 µg/mL) | 0.25 (≈ 0.587 µg/mL) | 1 (≈ 2.35 µg/mL) | 4 (≈ 9.4 µg/mL) | 6 | 25 | 30 | 18.5 | 6.25 | 25 | 4.8 | 0.77 | – | – |
| CC[C@H](C)[C@H](NC(=O)[C@H](CCCCN)NC(=O)[C@H](CC(C)C)NC(=O)[C@H](C)NC(=O)[C@H](CCCCN)NC(=O)[C@H](CC(C)C)NC(=O)[C@H](C)NC(=O)[C@@H](NC(=O)[C@H](CCCCN)NC(=O)[C@H](C)NC(=O)[C@@H](NC(=O)[C@@H](N)CCCCN)[C@@H](C)CC)C(C)C)C(=O)N[C@@H](C)C(=O)N[C@@H](CCCCN)C(=O)NCC(=O)N[C@@H](C)C(=O)N[C@@H](CC(C)C)C(=O)N[C@@H](CCCCN)C(=O)N[C@@H](C)C(=O)N[C@@H](CC(C)C)C(N)=O [KIA1] (H-KIAKVALKALKIAKGALKAL-NH2) | 12 (≈ 24.6 µg/mL) | 3 (≈ 6.14 µg/mL) | 12 (≈ 24.6 µg/mL) | 1.5 (≈ 3.07 µg/mL) | 0.75 (≈ 1.54 µg/mL) | 8 (≈ 16.4 µg/mL) | 3 (≈ 6.14 µg/mL) | 6 (≈ 12.3 µg/mL) | 1 (≈ 2.05 µg/mL) | 1.5 (≈ 3.07 µg/mL) | 3 (≈ 6.14 µg/mL) | 3 | 6 | 15 | 1.6 | – | 1 | 1 | 0.07 | 20 | – |
| CC[C@H](C)[C@H](N)C(=O)N[C@@H](CC(=O)O)C(=O)N[C@@H](Cc1c[nH]c2ccccc12)C(=O)N[C@@H](CCCCN)C(=O)N[C@@H](CCCCN)C(=O)N[C@@H](CC(C)C)C(=O)N[C@@H](CC(C)C)C(=O)N[C@@H](CC(=O)O)C(=O)N[C@@H](C)C(=O)N[C@@H](C)C(=O)N[C@@H](CCCCN)C(=O)N[C@@H](CCC(N)=O)C(=O)N[C@H](C(=O)N[C@@H](CC(C)C)C(N)=O)[C@@H](C)CC [MP1, reference compound] (H-IDWKKLLDAAKQIL-NH2) | – | – | – | – | – | – | – | – | – | – | – | 20 | 37 | – | – | – | – | – | – | 170 | MIC (E. coli MG1655) ([6]; broth microdilution, LB medium, 5 × 10^5 CFU/mL, 18-24 h, 37 °C, at least three assays): >32 µM; IC50 ([13]; MTT assay, 7000 cells/well, 24 h treatment, 37 °C, 5% CO2, absorbance 595 nm, read-out: IC50F (Fibroblasts)): 150 µM; IC50 ([14]; MTT assay, 7000 cells/well, 24 h treatment, 37 °C, 5% CO2, absorbance 595 nm, read-out: IC50C (PC-3)): 60 µM; TI (HC20/IC20C) ([14]; human erythrocytes vs PC-3): 1; TI/ IC50C ([14]; performance, product of TI and anticancer activity (1/IC50C)): 0.04; (TI/ IC50C) vs. MP1 ([14]; relative performance with respect to MP1 control peptide): 1.0; TI (IC50F/IC50C) ([14]; therapeutic index, fibroblasts vs PC-3): 2.5 |
